Where “and” joins values, the source holds several entries; their conditions need not be identical. Identical values can stand only once. Inconclusive results and toxic doses are left out.
System: nude mice, LOX melanoma ip, survival T/C
Assay: NCI In Vivo Anticancer Drug Screen. Data for tumor model Human Amelanotic Melanoma (LOX) (intraperitoneal) in NU/NU BALB/C (nude) mice
Details: endpoint: median survival time, higher = longer survival
Description: The antitumor activity of compounds was measured in mice bearing transplantable tumors. Survival or tumor size were measured and the results are expressed as the measurement made in the treated group (T) divided by the measurement made in the vehicle treated control group (C). The tumor model used in this assay is Human Amelanotic Melanoma (LOX) (intraperitoneal) in NU/NU BALB/C (nude) mice

[1] = dose: 75.0 mg/kg/injection, schedule: Q04DX003 (ip), vehicle: Klucel (hydroxypropylcellulose) (HPC)
[2] = dose: 150.0 mg/kg/injection, schedule: Q04DX003 (ip), vehicle: Klucel (hydroxypropylcellulose) (HPC)
[3] = dose: 300.0 mg/kg/injection, schedule: Q04DX003 (ip), vehicle: Klucel (hydroxypropylcellulose) (HPC)
[4] = dose: 50.0 mg/kg/injection, schedule: Q04DX003 (ip), vehicle: saline with Tween-80
[5] = dose: 75.0 mg/kg/injection, schedule: Q04DX003 (ip), vehicle: suspension in saline
[6] = dose: 150.0 mg/kg/injection, schedule: Q04DX003 (ip), vehicle: suspension in saline
[7] = dose: 300.0 mg/kg/injection, schedule: Q04DX003 (ip), vehicle: suspension in saline
[8] = dose: 600.0 mg/kg/injection, schedule: Q04DX003 (ip), vehicle: suspension in saline

CC(=O)NO
T/C (dose: 75.0 mg/kg/injection, schedule: Q04DX003 (ip), vehicle: water): 101 % of control | T/C (dose: 150.0 mg/kg/injection, schedule: Q04DX003 (ip), vehicle: water): 101 % of control | T/C (dose: 300.0 mg/kg/injection, schedule: Q04DX003 (ip), vehicle: water): 103 % of control | T/C (dose: 600.0 mg/kg/injection, schedule: Q04DX003 (ip), vehicle: water): 103 % of control | T/C (dose: 1200.0 mg/kg/injection, schedule: Q04DX003 (ip), vehicle: water): 92 % of control

COc1cc2c(c(OC)c1OC)-c1ccc(OC)c(=O)cc1[C@@H](N)CC2
T/C (dose: 3.75 mg/kg/injection, schedule: Q04DX003 (ip), vehicle: Klucel (hydroxypropylcellulose) (HPC)): 102 % of control | T/C (dose: 7.5 mg/kg/injection, schedule: Q04DX003 (ip), vehicle: Klucel (hydroxypropylcellulose) (HPC)): 104 % of control | T/C (dose: 15.0 mg/kg/injection, schedule: Q04DX003 (ip), vehicle: Klucel (hydroxypropylcellulose) (HPC)): 108 % of control and 113 % of control and 116 % of control | T/C (dose: 30.0 mg/kg/injection, schedule: Q04DX003 (ip), vehicle: Klucel (hydroxypropylcellulose) (HPC)): 113 % of control and 114 % of control and 115 % of control | T/C (dose: 60.0 mg/kg/injection, schedule: Q04DX003 (ip), vehicle: Klucel (hydroxypropylcellulose) (HPC)): 114 % of control | T/C (dose: 120.0 mg/kg/injection, schedule: Q04DX003 (ip), vehicle: Klucel (hydroxypropylcellulose) (HPC)): 163 % of control

Nc1n[nH]c2ccccc12
T/C (dose: 75.0 mg/kg/injection, schedule: Q04DX003 (ip), vehicle: other): 107 % of control | T/C (dose: 150.0 mg/kg/injection, schedule: Q04DX003 (ip), vehicle: other): 98 % of control

CN(C)C(=O)SC1=C(c2c(Cl)cccc2Cl)C(=O)c2ccccc21
T/C [1]: 103 % of control and 110 % of control | T/C [2]: 112 % of control and 97 % of control | T/C [3]: 109 % of control and 92 % of control | T/C (dose: 600.0 mg/kg/injection, schedule: Q04DX003 (ip), vehicle: Klucel (hydroxypropylcellulose) (HPC)): 110 % of control and 123 % of control | T/C (dose: 1200.0 mg/kg/injection, schedule: Q04DX003 (ip), vehicle: Klucel (hydroxypropylcellulose) (HPC)): 105 % of control

NC(CCC(=O)NC(CS)C(=O)NCC(=O)O)C(=O)O (stereo not given)
T/C (dose: 75.0 mg/kg/injection, schedule: Q04DX003 (ip), vehicle: saline): 100 % of control | T/C (dose: 150.0 mg/kg/injection, schedule: Q04DX003 (ip), vehicle: saline): 100 % of control | T/C (dose: 259.0 mg/kg/injection, schedule: Q04DX003 (ip), vehicle: saline): 108 % of control | T/C (dose: 300.0 mg/kg/injection, schedule: Q04DX003 (ip), vehicle: saline): 107 % of control | T/C (dose: 432.0 mg/kg/injection, schedule: Q04DX003 (ip), vehicle: saline): 108 % of control | T/C (dose: 600.0 mg/kg/injection, schedule: Q04DX003 (ip), vehicle: saline): 104 % of control | T/C (dose: 720.0 mg/kg/injection, schedule: Q04DX003 (ip), vehicle: saline): 93 % of control | T/C (dose: 1200.0 mg/kg/injection, schedule: Q04DX003 (ip), vehicle: saline): 95 % of control

CCOC(=O)Nc1cc2c(c(N)n1)N=C(c1ccccc1)CN2
T/C (dose: 0.94 mg/kg/injection, schedule: Q04DX003 (ip), vehicle: saline with Tween-80): 103 % of control | T/C (dose: 1.88 mg/kg/injection, schedule: Q04DX003 (ip), vehicle: saline with Tween-80): 107 % of control | T/C (dose: 3.75 mg/kg/injection, schedule: Q04DX003 (ip), vehicle: saline with Tween-80): 119 % of control | T/C (dose: 7.5 mg/kg/injection, schedule: Q04DX003 (ip), vehicle: saline with Tween-80): 121 % of control

C=C(c1ccc(OC)c(OC)c1)c1nccc2cc(OC)c(OC)cc12
T/C [1]: 88 % of control | T/C [2]: 99 % of control | T/C [3]: 96 % of control

C[n+]1c(-c2ccc(NC(=O)c3ccc(C(=O)Nc4ccc(-c5cn6ccccc6[n+]5C)cc4)cc3)cc2)cn2ccccc21
T/C (dose: 12.5 mg/kg/injection, schedule: Q04DX003 (ip), vehicle: saline with Tween-80): 114 % of control | T/C (dose: 25.0 mg/kg/injection, schedule: Q04DX003 (ip), vehicle: saline with Tween-80): 103 % of control | T/C [4]: 97 % of control

[Cl][Pt][Cl].[NH-]C(CO)C(=O)O (stereo not given)
T/C (dose: 9.38 mg/kg/injection, schedule: Q04DX003 (ip), vehicle: water): 119 % of control | T/C (dose: 18.75 mg/kg/injection, schedule: Q04DX003 (ip), vehicle: water): 114 % of control | T/C (dose: 37.5 mg/kg/injection, schedule: Q04DX003 (ip), vehicle: water): 123 % of control

CN(C)C(=O)Nc1ccc(Cl)cc1
T/C [5]: 118 % of control | T/C [6]: 102 % of control | T/C [7]: 102 % of control | T/C [8]: 102 % of control

C=CCOc1cc2c(cc1C(C)c1ccc(OC)cc1)OCO2 (stereo not given)
T/C (dose: 37.5 mg/kg/injection, schedule: Q04DX003 (ip), vehicle: Klucel (hydroxypropylcellulose) (HPC)): 101 % of control | T/C [1]: 96 % of control | T/C [2]: 109 % of control | T/C [3]: 112 % of control

N[C@@H](Cc1c[nH]c2ccccc12)C(=O)Nc1nncs1
T/C [5]: 107 % of control | T/C [6]: 94 % of control | T/C [7]: 94 % of control | T/C [8]: 119 % of control

Cc1ccc(C2=CSC3=NCCN23)cc1Cl
T/C (dose: 12.5 mg/kg/injection, schedule: Q04DX003 (ip), vehicle: Klucel (hydroxypropylcellulose) (HPC)): 97 % of control | T/C (dose: 25.0 mg/kg/injection, schedule: Q04DX003 (ip), vehicle: Klucel (hydroxypropylcellulose) (HPC)): 96 % of control | T/C (dose: 50.0 mg/kg/injection, schedule: Q04DX003 (ip), vehicle: Klucel (hydroxypropylcellulose) (HPC)): 101 % of control

O=C(O)CCCc1ccc(N(CCCl)CCCl)cc1
T/C (dose: 0.2 mg/kg/injection, schedule: Q04DX003 (ip), vehicle: Klucel (hydroxypropylcellulose) (HPC)): 90 % of control | T/C (dose: 0.3 mg/kg/injection, schedule: Q04DX003 (ip), vehicle: Klucel (hydroxypropylcellulose) (HPC)): 95 % of control | T/C (dose: 12.0 mg/kg/injection, schedule: Q01DX001 (ip), vehicle: Klucel (hydroxypropylcellulose) (HPC)): 117 % of control | T/C (dose: 12.0 mg/kg/injection, schedule: Q01DX005 (ip), vehicle: Klucel (hydroxypropylcellulose) (HPC)): 213 % of control | T/C (dose: 12.0 mg/kg/injection, schedule: Q01DX015 (ip), vehicle: Klucel (hydroxypropylcellulose) (HPC)): 173 % of control | T/C (dose: 12.0 mg/kg/injection, schedule: Q04DX003 (ip), vehicle: Klucel (hydroxypropylcellulose) (HPC)): 116 % of control | T/C (dose: 18.0 mg/kg/injection, schedule: Q01DX001 (ip), vehicle: Klucel (hydroxypropylcellulose) (HPC)): 161 % of control | T/C (dose: 18.0 mg/kg/injection, schedule: Q01DX005 (ip), vehicle: Klucel (hydroxypropylcellulose) (HPC)): 190 % of control | T/C (dose: 18.0 mg/kg/injection, schedule: Q01DX015 (ip), vehicle: Klucel (hydroxypropylcellulose) (HPC)): 346 % of control | T/C (dose: 27.0 mg/kg/injection, schedule: Q01DX005 (ip), vehicle: Klucel (hydroxypropylcellulose) (HPC)): 346 % of control | T/C (dose: 27.0 mg/kg/injection, schedule: Q01DX015 (ip), vehicle: Klucel (hydroxypropylcellulose) (HPC)): 346 % of control | T/C (dose: 27.0 mg/kg/injection, schedule: Q04DX003 (ip), vehicle: Klucel (hydroxypropylcellulose) (HPC)): 210 % of control and 248 % of control and 97 % of control

NC(CNC(=O)CBr)C(=O)O (stereo not given)
T/C (dose: 12.5 mg/kg/injection, schedule: Q04DX003 (ip), vehicle: water): 97 % of control | T/C (dose: 25.0 mg/kg/injection, schedule: Q04DX003 (ip), vehicle: water): 93 % of control | T/C (dose: 50.0 mg/kg/injection, schedule: Q04DX003 (ip), vehicle: water): 98 % of control | T/C (dose: 100.0 mg/kg/injection, schedule: Q04DX003 (ip), vehicle: water): 90 % of control | T/C (dose: 200.0 mg/kg/injection, schedule: Q04DX003 (ip), vehicle: water): 88 % of control

BrC[P+](CBr)(CBr)CBr
T/C [4]: 113 % of control | T/C (dose: 100.0 mg/kg/injection, schedule: Q04DX003 (ip), vehicle: saline with Tween-80): 121 % of control | T/C (dose: 200.0 mg/kg/injection, schedule: Q04DX003 (ip), vehicle: saline with Tween-80): 105 % of control | T/C (dose: 400.0 mg/kg/injection, schedule: Q04DX003 (ip), vehicle: saline with Tween-80): 103 % of control | T/C (dose: 800.0 mg/kg/injection, schedule: Q04DX003 (ip), vehicle: saline with Tween-80): 119 % of control

NNC(=O)c1ccncc1
T/C (dose: 18.75 mg/kg/injection, schedule: Q04DX003 (ip), vehicle: saline): 110 % of control | T/C (dose: 37.5 mg/kg/injection, schedule: Q04DX003 (ip), vehicle: saline): 109 % of control

CC(=O)NC(CCc1ccc(Cl)c(Cl)c1)c1cccc(O)c(=O)c1 (stereo not given)
T/C (dose: 86.4 mg/kg/injection, schedule: Q04DX003 (ip), vehicle: Klucel (hydroxypropylcellulose) (HPC)): 98 % of control | T/C (dose: 240.0 mg/kg/injection, schedule: Q04DX003 (ip), vehicle: Klucel (hydroxypropylcellulose) (HPC)): 109 % of control
